# From US9597314B2, “Beta-lactamylalkanoic acids for treating premenstrual disorders” (AZEVAN PHARMACEUTICALS, INC., priority 2005, dated 2017)
# pKi: −log10 of the molar value.
# Assays:
# vasopressin V1a receptor = molecular target: T1, vasopressin V1a receptor (Homo sapiens, UniProt P37288); experiment: Inhibition of phosphatidylinositol turnover; type: cell-based; settings: vasopressin-mediated turnover of phosphatidylinositol, hV1a cells
# T1 construct: host or cells: CHO cells (hV1a cell line), whole adherent cells
# T1 sequence (P37288 whole entry): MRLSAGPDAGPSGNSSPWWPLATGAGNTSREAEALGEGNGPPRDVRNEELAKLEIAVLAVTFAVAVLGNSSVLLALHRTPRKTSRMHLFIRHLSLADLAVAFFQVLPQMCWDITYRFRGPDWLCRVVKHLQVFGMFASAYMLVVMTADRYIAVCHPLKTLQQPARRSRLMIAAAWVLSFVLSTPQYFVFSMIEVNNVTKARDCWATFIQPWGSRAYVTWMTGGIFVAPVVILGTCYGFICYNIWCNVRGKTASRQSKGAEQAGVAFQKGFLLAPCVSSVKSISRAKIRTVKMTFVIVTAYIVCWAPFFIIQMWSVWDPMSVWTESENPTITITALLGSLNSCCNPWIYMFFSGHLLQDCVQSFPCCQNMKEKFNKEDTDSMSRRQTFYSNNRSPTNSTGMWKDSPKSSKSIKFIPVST
# Text: Inhibition of phosphatidylinositol turnover. The physiological effects of vasopressin are mediated through specific G-protein coupled receptors. The vasopressin V1a receptor is coupled to the Gq/G11 family of G proteins and mediates phosphatidylinositol turnover. The agonist or antagonist character of the compounds of the invention may be determined by their ability to inhibit vasopressin-mediated turnover of phosphatidylinositol by the procedure described in the following paragraphs.
# Cell culture and labeling of cells. Three days prior to the assay, near-confluent cultures of hV1a cells were dissociated and seeded in 6-well tissue culture plates, about 100 wells being seeded from each 75 cm^2 flask (equivalent to 12:1 split ratio).
# Incubations. All assays were in triplicate except for basal and 10 nM AVP (both n=6). AVP ((arginine vasopressin), Peninsula Labs, Belmont, Calif., USA (#8103)) was dissolved in 0.1N acetic acid. Test agents were dissolved in DMSO and diluted in DMSO to 200 times the final test concentration. […] The order of incubations was randomized. Incubations were initiated by removing the prelabeling medium, washing the monolayer once with 1 mL of 0.9% NaCl, and transferring the contents of the assay tubes to corresponding wells. The plates were incubated for 1 hour at 37° C. Incubations were terminated by removing the incubation medium and adding 500 μL of ice cold 5% (w/v) trichloroacetic acid and allowing the wells to stand for 15 min.
# Measurement of [^3H]inositol phosphates. BioRad Poly-Prep Econo-Columns were packed with 0.3 mL of AG 1 X-8 100-200 formate form resin. Resin was mixed 1:1 with water and 0.6 mL added to each column. Columns were then washed with 10 mL water. Scintillation vials (20 mL) were placed under each column. For each well, the contents were transferred to a minicolumn, after which the well was washed with 0.5 mL distilled water, which was also added to the minicolumn. The columns were then washed twice with 5 mL of 5 mM myo-inositol to elute free inositol. Aliquots (1 mL) were transferred to 20 mL scintillation vials and 10 mL of Beckman Ready Protein Plus added. After the myo-inositol wash was complete, empty scintillation vials were placed under the columns, and [^3H]inositol phosphates were eluted with three additions of 1 mL 0.5 M ammonium formate containing 0.1 N formic acid. Elution conditions were optimized to recover inositol mono-, bis-, and trisphosphates, without eluting the more metabolically inert tetrakis-, pentakis-, and hexakis-phosphates. To each sample was added 10 mL of a high salt capacity scintillation fluid such as Tru-Count High Salt Capacity or Packard Hionic-Fluor. Inositol lipids were measured by adding 1 mL of 2% sodium dodecyl sulfate (SDS) to each well, allowing the wells to stand for at least 30 min., and transferring the solution to 20 mL scintillation vials, to which 10 mL Beckman Ready Protein Plus scintillation fluid was then added. Samples were counted in a Beckman LS 3801 liquid scintillation counter for 10 min. Total inositol incorporation for each well was calculated as the sum of free inositol, inositol phosphates, and inositol lipids.
# Data analysis: concentration-inhibition experiments. Concentration-response curves for AVP and concentration-inhibition curves for test agents versus 10 nM AVP were analyzed by nonlinear least-squares curve-fitting to a 4-parameter logistic function. Parameters for basal and maximal inositol phosphates, EC50 or IC50, and Hill coefficient were varied to achieve the best fit. The curve-fitting was weighted under the assumption that the standard deviation was proportional to dpm of radioactivity. Full concentration-response curves for AVP were run in each experiment, and IC50 values were converted to Ki values by application of the Cheng-Prusoff equation, based on the EC50 for AVP in the same experiment. Inositol phosphates were expressed as dpm per 10^6 dpm of total inositol incorporation.
# V1a [1] = molecular target: T2, V1a (Homo sapiens, UniProt P37288); experiment: Human vasopression V1a receptor binding assay; parameters: host or cells: CHO cells (hV1a cell line), whole adherent cells; settings: hV1a cell line (CHO); for pKi: Table 18; for IC50: 1 nM 3H-AVP, Table 17, read-out: V1a Binding Affinity (IC50 (nM))
# T2 sequence (P37288 whole entry): as above
# Summary of the method: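 Whole CHO cells stably expressing human V1a receptor competed 1 nM 3H-AVP against 10-fold serial compound dilutions (DMSO) in pH 7.0 Hepes/BSA/DMEM buffer, 45 min at 37° C.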
# V1a [2] = molecular target: T2, V1a; parameters: host or cells: human subjects (in vivo); settings: oral, subjects 18-35 years; cited from earlier work
agonist or antagonist character (vasopressin V1a receptor),pKi (V1a [1]),IC50 (V1a [1]) [nM],Molecule,reduction in pain across three menstrual cycles (V1a [2])
vasopressin V1a antagonists,8.93,,"O=C(NCc1cccc(C(F)(F)F)c1)C(CCC(=O)N1CCN(CCc2ccccc2)CC1)N1C(=O)C(N2C(=O)OCC2c2ccccc2)C1C=Cc1ccccc1 (single isomer, unassigned) [Example 35]",
vasopressin V1a antagonists,8.72,,O=C(NCc1cccc(C(F)(F)F)c1)[C@H](CC(=O)N1CCC(N2CCCCC2)CC1)N1C(=O)[C@@H](N2C(=O)OC[C@@H]2c2ccccc2)[C@H]1/C=C/c1ccccc1 [Example 44],
,8.36,7.07,CC(C)N1CCN(C(=O)CC[C@@H](C(=O)NCc2cccc(C(F)(F)F)c2)N2C(=O)[C@@H](N3C(=O)OC[C@@H]3c3ccccc3)[C@H]2/C(Cl)=C/c2ccccc2)CC1 [Example 230],
,9.08,1.37,O=C([C@@H](COCc1ccccc1)N1C(=O)[C@@H](N2C(=O)OC[C@@H]2c2ccccc2)[C@H]1/C=C/c1ccccc1)N1CCC(N2CCCCC2)CC1 [Example 232],
,9.47,0.56,O=C([C@@H](COCc1ccccc1)N1C(=O)[C@@H](N2C(=O)OC[C@@H]2c2ccccc2)[C@H]1/C=C/c1ccccc1)N1CCC(CCN2CCCCC2)CC1 [Example 233],
,8.99,1.68,"O=C(NCc1cccc(C(F)(F)F)c1)[C@H](CCC(=O)N1CCN(C2CCCCC2)CC1)N1C(=O)[C@@H](N2C(=O)OC[C@@H]2c2ccccc2)[C@H]1CCc1ccccc1 [Example 236, (2S)-[(4-cyclohexylpiperazinyl)carbonylethyl]-2-[3(S)-(4(S)-phenyloxazolidin-2-on-3-yl)-4(R)-(2-phenyleth-1-yl)azetidin-2-on-1-yl]acetic acid N-(3-trifluoromethylbenzyl)amide]",
,8.26,9,"(2S)-[(4-cyclohexylpiperazinyl)carbonylethyl]-2-[3(S)-(4(S)-phenyloxazolidin-2-on-3-yl)-4(R)-(2-phenyleth-1-yl)azetidin-2-on-1-yl]acetic acid N—[(R)-1,2,3,4-tetrahydronaphth-1-yl]amide [Example 236A]",

# Continued, molecule first:
Molecule,agonist or antagonist character (vasopressin V1a receptor),pKi (V1a [1]),IC50 (V1a [1]) [nM],reduction in pain across three menstrual cycles (V1a [2])
"O=C(NCc1cccc(C(F)(F)F)c1)C(CCC(=O)N1CCN(C2CCCCC2)CC1)N1C(=O)C(N2C(=O)OCC2c2ccccc2)C1C=Cc1ccccc1 (single isomer, unassigned) [Example 110]",vasopressin V1a antagonists,9.57,,
O=C(NCc1cccc(C(F)(F)F)c1)[C@H](CCC(=O)N1CCC(N2CCCCC2)CC1)N1C(=O)[C@@H](N2C(=O)OC[C@@H]2c2ccccc2)[C@H]1/C=C/c1ccccc1 [Example 88],vasopressin V1a antagonists,8.84,2.4,
O=C(NCc1cccc(C(F)(F)F)c1)[C@@H](CC(=O)N1CCC(N2CCCCC2)CC1)N1C(=O)[C@@H](N2C(=O)OC[C@@H]2c2ccccc2)[C@H]1/C=C/c1ccccc1 [Example 133],vasopressin V1a antagonists,8.83,,
CCCCN1CCN(C(=O)CC[C@@H](C(=O)NCc2cccc(C(F)(F)F)c2)N2C(=O)C(N3C(=O)OC[C@@H]3c3ccccc3)C2/C(Br)=C/c2ccccc2)CC1 (stereo partly drawn) [Example 230L],,8.11,12.7,
"COc1ccccc1C=CC1C(N2C(=O)OCC2c2ccccc2)C(=O)N1C(CC(=O)N1CCC(N2CCCCC2)CC1)C(=O)NCc1cccc(C(F)(F)F)c1 [Example 231, 2(R)-[[4-(Piperidinyl)piperidinyl]carbonylmethyl]-2-[3(S)-(4(S)-phenyloxazolidin-2-on-3-yl)-4(R)-(2′-methoxystyr-2-yl)azetidin-2-on-1-yl]acetic acid N-(3-trifluoromethylbenzyl)amide]",,8.43,6.12,
"C[C@@]1(N2C(=O)OC[C@@H]2c2ccccc2)C(=O)N([C@H](CC(=O)N2CCC(N3CCCCC3)CC2)C(=O)NCc2cccc(C(F)(F)F)c2)[C@@H]1/C=C/c1ccccc1 [Example 234A, 4-(Piperidinyl)-piperidinyl 3(R)-[3(S)-(4(S)-phenyloxazolidin-2-on-3-yl)-3-methyl-4(R)-(styr-2-yl)azetidin-2-on-1-yl]-3-[(3-trifluoromethyl)phenylmethylaminocarbonyl]propanoic acid]",,8.28,8.6,
"O=C(C[C@@H](C(=O)NCc1cccc(C(F)(F)F)c1)N1C(=O)[C@@H](N2C(=O)OC[C@@H]2c2ccccc2)[C@H]1CCc1ccccc1)NC1CCN(Cc2ccccc2)CC1 [Example 235, 2(S)-[[(1-Benzylpiperidin-4-yl)amino]carbonylmethyl]-2-[3(S)-(4(S)-phenyloxazolidin-2-on-3-yl)-4(R)-(2-phenyleth-1-yl)azetidin-2-on-1-yl]acetic acid N-(3-trifluoromethylbenzyl)amide]",,7.64,37,
COc1ccc(S(=O)(=O)N2c3ccc(Cl)cc3[C@](O)(c3ccccc3Cl)[C@@H]2C(=O)N2CCC[C@H]2C(N)=O)cc1OC [SR49059],,,,significant reduction in pain
